What was measured:
[1] = Metabolite identification of DH in rat plasma, urine, feces and rat liver microsomes by UHPLC-Q-Orbitrap MS/MS; type: in vivo; conditions: rat plasma
Procedure: For the analysis of DH metabolites, the same UHPLC-MS/MS system was used for the plasma analysis, and the ACQUIT UHPLC BEH C18 column was also utilized. Mobile phase A consisted of 0.1% formic acid in water (v/v), while mobile phase B comprised acetonitrile. The flow rate was maintained at 0.2 mL/min, with a 10 µL injection volume. The column temperature was kept constant at 35 °C, and the RS autosampler temperature was maintained at 10 °C. The gradient elution was as follows: 0–3 min(5%B), 3–11 min (7%B), 11–18 min (7%B), and 18–45 min (30%B). A full MS/dd MS^2 mode in positive heated electrospray ionization (HESI) with 140,000 (for MS) and 17,500 (for MS/MS) resolutions was used for the Q–Exactive Plus Orbitrap MS. The compounds identified in full MS/dd MS^2 mode will be scanned using PRM scanning. The following MS parameters were employed: AGC target, 1 × 10^6; Maximum IT, 100 ms; Spray voltage, 3.2 kV; Capillary temp, 320 °C; S-lens RF level, 55; HCD Energy 20, 40, and 60.
Rat liver microsomes were used for in vitro experiments to study DH metabolism in rats more quickly and easily. After that, the cofactors of phases I and II were added to create the phase I and phase II metabolic systems. The composition of the reagent kit and the procedure can be found in our previous work.
For the plasma study, 100 µL of plasma was obtained from rats at 0.5, 1, 2, and 4 h after medicine administration. Then, 300 µL of acetonitrile was added to the above plasma, vortexed for 1 min, and centrifuged for 7 min. The supernatant was collected, and the remaining liquid was dried using nitrogen gas at 40 °C. The blow-dried samples were re-dissolved in 100 µL methanol, sonicated for 1 min, and centrifuged for 7 min.
Urine was collected during the period spanning from 0 to 48 h following administration, with each period’s combined urine comprising 10 mL and 30 mL of acetonitrile added thereto. After a 10 min interval of sonication, the urine samples were transferred into 1.5 mL centrifuge tubes, vortexed for 1 min, and then centrifuged at a speed of 14,000 rpm for 10 min. Successively, the supernatant was merged and subjected to drying by nitrogen gas at 40 °C. The blow-dried samples were re-dissolved in 100 µL of methanol, sonicated for 1 min, and centrifuged for 7 min.
For the fecal study, feces were collected within 0–48 h following administration, dried to powder at room temperature in a shaded area, and combined to yield 8 mL per period, to which 40 mL of acetonitrile was added. Following 30 min of sonication, the samples were transferred to 1.5 mL centrifuge tubes and centrifuged at 14,000 rpm for 10 min. The supernatant was collected and dried with nitrogen at 40 °C before analysis via UHPLC-MS/MS. Before analysis, the blow-dried samples were re-dissolved in 100 µL of methanol, sonicated for 1 min, and centrifuged for 7 min.
Compound Discovery 3.3 was used for data processing. The MS spectrometric features mainly include retention time, exact mass, peak intensity, and fragment ions. The data processing mainly included selecting spectra, aligning retention times, creating pattern traces, creating fish traces, generating expected compounds, finding expected compounds, grouping expected compounds, fish scoring, and marking background compounds. The mass tolerance is less than 5 ppm.

[2] = Stability of DH in rat plasma samples (autosampler, −80 °C storage, room temperature, freeze–thaw); type: in vitro ADME; conditions: for Accuracy, 4 h / Accuracy, 8 h / Accuracy, 12 h: autosampler; for Accuracy, Room temper: room temperature; for Accuracy, 1 day / Accuracy, 7 days / Accuracy, 15 days: stored at −80 °C; for Accuracy, Thaw: three freeze–thaw cycles
Procedure: Three concentrations were used to test the stability of plasma samples in a variety of circumstances. […] Its accuracy range was 97.46–109.44%. When samples were stored at −80 °C, the accuracy of the samples ranged from 99.44% to 109.22% at three concentrations on days 1, 7, and 15. The prepared QC samples were placed in the autosampler and injected at 4, 8, and 12 h. The accuracy was calculated to be in the range of 103.34–110.57%. The prepared stability samples were stored at −80 °C and the accuracy range was measured from 97.37% to 104.56% after three sequential freeze–thaw cycles.
DH was added to the blank plasma to produce concentrations of 1, 10, 100, and 500 ng/mL QC samples. Then, 10 µL DH was added to blank plasma and vortexed for 3 s. Next, 10 µL IS was added to the plasma and vortexed for 3 s, while 300 µL of acetonitrile was added to the above plasma, vortexed for 1 min, and centrifuged for 7 min. The mixture supernatant was collected and blown dry at 40 °C under nitrogen. Blow-dried samples were re-dissolved in 100 μL of 30% acetonitrile in water and centrifuged for 7 min.
Although acetonitrile precipitates most of the protein, plasma samples contain phospholipids, metabolites, etc., that interfere with the detection of DH and IS. Specificity was mainly examined at DH and IS retention times without interference peaks in blank plasma. In addition, samples tested after administration should not show interfering peaks at the DH and IS peak times. The standard curves were made up of 8 nonzero analyte points, and the linearity was tested. The correlation of peak area (analyte/IS) with the labeled plasma concentration was plotted for regression analysis. This analyte was predicted to have a correlation coefficient (r^2) of more than 0.99 with the corresponding standard curve. The relative standard deviation (RSD) and relative error (RE) values were calculated by measuring six repeated QC samples on the same day to evaluate the intra-day precision and accuracy. Inter-day precision and accuracy were characterized by RSD and RE, respectively. The recoveries were determined by examining the ratio of the peak areas of DH before and after extraction. The matrix effect is the ratio of the peak area of DH added to plasma and DH dissolved in the solvent. The stability evaluation should guarantee that the concentration of the analyte remains unchanged throughout the sample preparation and analysis process, as well as during storage. Stability studies include long-term storage stability at −80 °C (1, 7 and 15 days); repeated freeze–thaw stability; autosampler stability; room temperature stability; and long-term storage stability of stock solutions.

[3] = parameters: method as in doi:10.37547/TAJMSPR/Volume02Issue07-17; conditions: rats, compared with verapamil; cited from earlier work
[4] = system: membrane surface Na^+–Ca^2+ exchange; parameters: method as in doi:10.13005/bpj/1892; conditions: decreases sarcoplasmic reticulum Ca2+ release; cited from earlier work
[5] = nominal concentration 100 ng/mL
[6] = nominal concentration 500 ng/mL

For `COc1cc2c(cc1OC)C(c1ccc(N(C)C)cc1)NCC2` (stereo not shown) [DH, N, N-dimethylaniline-heliamine], the “Rat and LM* (matrices in which DH or the metabolite was detected)” value [1] was “P*, U*, F*, LM*”, the “Accuracy, 4 h” value ([2]; nominal concentration 10 ng/mL) was 110.30% and the “Accuracy, 8 h” value ([2]; nominal concentration 10 ng/mL) was 108.80%. The “Accuracy, 12 h” value ([2]; nominal concentration 10 ng/mL) was 110.57%, the “Accuracy, 4 h” value [2, 5] was 106.65% and the “Accuracy, 8 h” value [2, 5] was 106.69%. The “Accuracy, 12 h” value [2, 5] was 103.81%, the “Accuracy, 4 h” value [2, 6] was 105.03% and the “Accuracy, 8 h” value [2, 6] was 103.54%. For the same compound, the “Accuracy, 12 h” value [2, 6] was 103.34%, the “time stable in rat plasma samples” value ([2]; kept at room temperature) was “at least 12 h” and the “Accuracy, Room temper” value ([2]; nominal concentration 10 ng/mL) was 109.44%. The “Accuracy, Room temper” value [2, 5] was 101.36%, the “Accuracy, Room temper” value [2, 6] was 97.46% and the “Accuracy, 1 day” value ([2]; nominal concentration 10 ng/mL) was 109.12%. For the same compound, the “Accuracy, 7 days” value ([2]; nominal concentration 10 ng/mL) was 108.43%, the “Accuracy, 15 days” value ([2]; nominal concentration 10 ng/mL) was 106.68% and the “Accuracy, 1 day” value [2, 5] was 103.58%. The “Accuracy, 7 days” value [2, 5] was 106.23%, the “Accuracy, 15 days” value [2, 5] was 101.13% and the “Accuracy, 1 day” value [2, 6] was 99.17%. The “Accuracy, 7 days” value [2, 6] was 105.59%, the “Accuracy, 15 days” value [2, 6] was 94.99% and the “Accuracy, Thaw” value ([2]; nominal concentration 10 ng/mL) was 100.00%. The “Accuracy, Thaw” value [2, 5] was 104.56%, the “Accuracy, Thaw” value [2, 6] was 97.37% and the Acute toxicity parameters [3] was “more than six times lower than those of verapamil”. The “membrane surface Na+–Ca2+ exchange inhibition” value [4] was “inhibitor”.

— publication PMC11434354, “Metabolic and Pharmacokinetic Profiling Studies of N, N-Dimethylaniline-Heliamine in Rats by UHPLC-Q-Orbitrap MS/MS” (Molecules, 2024)
